These results are taken from ChEMBL document CHEMBL5038598, “Design and Synthesis of Pyrrolo[2,3-d]pyrimidine-Derived Leucine-Rich Repeat Kinase 2 (LRRK2) Inhibitors Using a Checkpoint Kinase 1 (CHK1)-Derived Crystallographic Surrogate” (J Med Chem, 2021).

Bounds are passed on as bounds.

The nature of data set [1]: Half life in Sprague-Dawley rat plasma at 1 mg/kg, IV […]. It counts as ADME, organism-based.
Data set [2] is described as follows: Drug uptake in Mdr1a/ 1b-BCRP knockout C57BL/6 mouse plasma at 5 mg/kg, sc and measured after 0.5 hrs. Format: ADME, organism-based.
The target in data set [3] is Mitogen-activated protein kinase kinase kinase 1 (Homo sapiens, UniProt Q13233). Nature of the data set: Inhibition of MAP3K1 expressed in human PBMCs measured by KiNativ profiling analysis.
Sequence of Mitogen-activated protein kinase kinase kinase 1 (Q13233 whole entry): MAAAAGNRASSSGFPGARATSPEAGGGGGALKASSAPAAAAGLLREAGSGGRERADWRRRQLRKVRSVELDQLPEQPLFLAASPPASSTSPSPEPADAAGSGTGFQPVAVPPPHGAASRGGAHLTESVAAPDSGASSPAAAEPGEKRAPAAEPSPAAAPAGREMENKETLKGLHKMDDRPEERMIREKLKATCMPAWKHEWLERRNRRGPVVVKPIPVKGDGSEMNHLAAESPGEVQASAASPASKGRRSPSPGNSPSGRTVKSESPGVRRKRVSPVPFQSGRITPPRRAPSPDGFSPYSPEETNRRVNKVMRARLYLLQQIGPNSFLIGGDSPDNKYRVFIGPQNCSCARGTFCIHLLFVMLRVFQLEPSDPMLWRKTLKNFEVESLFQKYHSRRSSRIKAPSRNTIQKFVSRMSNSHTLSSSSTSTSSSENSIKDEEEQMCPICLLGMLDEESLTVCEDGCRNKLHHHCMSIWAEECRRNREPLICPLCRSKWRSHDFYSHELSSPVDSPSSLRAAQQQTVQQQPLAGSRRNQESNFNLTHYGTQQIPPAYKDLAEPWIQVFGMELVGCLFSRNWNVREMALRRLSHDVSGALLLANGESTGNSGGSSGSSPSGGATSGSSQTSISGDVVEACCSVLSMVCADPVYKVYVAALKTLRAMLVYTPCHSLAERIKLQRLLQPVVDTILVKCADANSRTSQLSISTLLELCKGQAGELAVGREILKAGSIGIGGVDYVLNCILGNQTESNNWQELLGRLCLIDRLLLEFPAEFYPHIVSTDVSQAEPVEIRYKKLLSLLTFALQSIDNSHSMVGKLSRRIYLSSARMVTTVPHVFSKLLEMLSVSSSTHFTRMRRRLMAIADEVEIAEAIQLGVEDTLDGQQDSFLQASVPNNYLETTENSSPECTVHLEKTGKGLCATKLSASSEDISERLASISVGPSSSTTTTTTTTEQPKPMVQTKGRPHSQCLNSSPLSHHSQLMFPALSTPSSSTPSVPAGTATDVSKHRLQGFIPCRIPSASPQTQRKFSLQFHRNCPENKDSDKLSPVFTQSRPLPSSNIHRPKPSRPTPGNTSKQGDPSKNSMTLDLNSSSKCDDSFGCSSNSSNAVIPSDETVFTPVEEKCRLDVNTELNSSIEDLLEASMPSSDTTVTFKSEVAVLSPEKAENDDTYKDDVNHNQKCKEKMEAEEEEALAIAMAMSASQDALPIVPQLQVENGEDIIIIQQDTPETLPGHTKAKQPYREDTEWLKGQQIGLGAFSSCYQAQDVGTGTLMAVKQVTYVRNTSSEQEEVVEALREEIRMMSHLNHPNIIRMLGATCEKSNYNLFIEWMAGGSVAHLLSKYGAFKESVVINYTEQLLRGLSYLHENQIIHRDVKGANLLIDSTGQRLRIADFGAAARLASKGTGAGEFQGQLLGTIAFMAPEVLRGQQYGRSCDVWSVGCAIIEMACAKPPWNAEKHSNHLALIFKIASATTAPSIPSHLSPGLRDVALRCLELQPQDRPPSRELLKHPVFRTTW
Data set [4] deals with T1, Phosphatidylinositol 4-kinase beta (Homo sapiens, UniProt Q9UBF8). Nature of the data set: Inhibition of PI4KB expressed in human PBMCs measured at 10 uM by KiNativ profiling analysis relative to control.
Target sequence in this assay (Q9UBF8 2-816 limits assumed): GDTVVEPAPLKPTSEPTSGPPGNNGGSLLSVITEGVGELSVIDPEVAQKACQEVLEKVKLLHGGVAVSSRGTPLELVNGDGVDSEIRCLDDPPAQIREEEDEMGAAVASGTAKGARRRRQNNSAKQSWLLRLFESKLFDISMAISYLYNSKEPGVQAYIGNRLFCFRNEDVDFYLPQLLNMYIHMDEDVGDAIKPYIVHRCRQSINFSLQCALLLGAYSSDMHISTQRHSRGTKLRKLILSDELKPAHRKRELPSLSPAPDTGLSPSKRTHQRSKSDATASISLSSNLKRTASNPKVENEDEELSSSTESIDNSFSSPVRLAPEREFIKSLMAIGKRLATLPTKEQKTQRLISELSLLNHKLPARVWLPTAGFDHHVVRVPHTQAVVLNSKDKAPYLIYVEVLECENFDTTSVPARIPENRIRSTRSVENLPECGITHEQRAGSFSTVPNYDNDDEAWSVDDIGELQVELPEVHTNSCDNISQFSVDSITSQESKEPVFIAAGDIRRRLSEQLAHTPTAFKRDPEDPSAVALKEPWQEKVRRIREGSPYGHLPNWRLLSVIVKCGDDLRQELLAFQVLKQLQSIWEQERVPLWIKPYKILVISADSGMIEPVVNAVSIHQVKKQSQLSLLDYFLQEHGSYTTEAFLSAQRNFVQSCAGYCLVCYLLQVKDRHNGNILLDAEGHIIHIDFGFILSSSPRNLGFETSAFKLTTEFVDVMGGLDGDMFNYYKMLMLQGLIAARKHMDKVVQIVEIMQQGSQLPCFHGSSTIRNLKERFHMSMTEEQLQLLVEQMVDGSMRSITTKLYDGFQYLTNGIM
Data set [5] in a line: Drug uptake in mdrla-deficient C57BL/6 mouse plasma at 5 mg/kg, sc and measured after 0.5 hrs. Format: ADME, organism-based.
A short description of data set [6]: Clearance in Beagle dog plasma at 1 mg/kg, IV relative to liver blood flow. It counts as ADME, organism-based, Canis lupus familiaris.
A short description of data set [7]: Oral bioavailability in Sprague-Dawley rat plasma at 2 mg/kg relative to liver blood flow. It counts as ADME, organism-based.
Data set [8] in a line: Ratio of drug level in Mdr1A deficient C57BL/6 mouse brain to plasma at 5 mg/kg, sc and measured after 0.5 hrs. Format: ADME, organism-based.
A short description of data set [9]: Ratio of unbound drug level in Md1a deficient C57BL/6 mouse brain to plasma at 5 mg/kg, sc and measured after 0.5 hrs. Format: ADME, organism-based.
For data set [10], the target named is Receptor-type tyrosine-protein kinase FLT3 (Homo sapiens, UniProt P36888, D835V/ITD). Nature of the data set: Binding affinity to human FLT3 ITD, D835V (V592/Y969) mutant expressed in mammalian system assessed as dissociation constant measured at 1 uM by DiscoveRx KINOMEscan assay.
The next data set is filed under the species Homo sapiens. Nature of the data set: Inhibition of human PIP5K2C (M1/A421) WT expressed in mammalian system assessed as remaining activity measured at 1 uM by DiscoveRx KINOMEscan assay relative to control.
A further data set has as its system BCRP (human). The experiment in a line: Efflux ratio of apparent permeability in MDCK cells expressing human BCRP. It counts as ADME, cell-based, Canis lupus familiaris. The settings on record: dog.
The nature of data set [11]: Ratio of unbound drug level in Md1a/1b BCRP knockout C57BL/6 mouse brain to plasma at 5 mg/kg, sc and measured after 0.5 hrs. Format: ADME, organism-based. Particulars: in vivo.
Data set [12] can be described thus: Clearance in human liver microsomes. Format: ADME, Microsome. Particulars: read-out: CLH (converted). For orientation: Liver microsomes are vesicles of endoplasmic reticulum, rich in cytochrome P450 enzymes.
The target of data set [13] is Leucine-rich repeat serine/threonine-protein kinase 2 (Mus musculus, UniProt Q5S006). Nature of the data set: Inhibition of LRRK2-WT in C57BL/6 mouse brain at 10 to 150 mg/kg and measured after 1 hrs by western blotting. It counts as organism-based. Background: Immunoblotting shows a protein as a band on a membrane.
Sequence of Leucine-rich repeat serine/threonine-protein kinase 2 (Q5S006 whole entry): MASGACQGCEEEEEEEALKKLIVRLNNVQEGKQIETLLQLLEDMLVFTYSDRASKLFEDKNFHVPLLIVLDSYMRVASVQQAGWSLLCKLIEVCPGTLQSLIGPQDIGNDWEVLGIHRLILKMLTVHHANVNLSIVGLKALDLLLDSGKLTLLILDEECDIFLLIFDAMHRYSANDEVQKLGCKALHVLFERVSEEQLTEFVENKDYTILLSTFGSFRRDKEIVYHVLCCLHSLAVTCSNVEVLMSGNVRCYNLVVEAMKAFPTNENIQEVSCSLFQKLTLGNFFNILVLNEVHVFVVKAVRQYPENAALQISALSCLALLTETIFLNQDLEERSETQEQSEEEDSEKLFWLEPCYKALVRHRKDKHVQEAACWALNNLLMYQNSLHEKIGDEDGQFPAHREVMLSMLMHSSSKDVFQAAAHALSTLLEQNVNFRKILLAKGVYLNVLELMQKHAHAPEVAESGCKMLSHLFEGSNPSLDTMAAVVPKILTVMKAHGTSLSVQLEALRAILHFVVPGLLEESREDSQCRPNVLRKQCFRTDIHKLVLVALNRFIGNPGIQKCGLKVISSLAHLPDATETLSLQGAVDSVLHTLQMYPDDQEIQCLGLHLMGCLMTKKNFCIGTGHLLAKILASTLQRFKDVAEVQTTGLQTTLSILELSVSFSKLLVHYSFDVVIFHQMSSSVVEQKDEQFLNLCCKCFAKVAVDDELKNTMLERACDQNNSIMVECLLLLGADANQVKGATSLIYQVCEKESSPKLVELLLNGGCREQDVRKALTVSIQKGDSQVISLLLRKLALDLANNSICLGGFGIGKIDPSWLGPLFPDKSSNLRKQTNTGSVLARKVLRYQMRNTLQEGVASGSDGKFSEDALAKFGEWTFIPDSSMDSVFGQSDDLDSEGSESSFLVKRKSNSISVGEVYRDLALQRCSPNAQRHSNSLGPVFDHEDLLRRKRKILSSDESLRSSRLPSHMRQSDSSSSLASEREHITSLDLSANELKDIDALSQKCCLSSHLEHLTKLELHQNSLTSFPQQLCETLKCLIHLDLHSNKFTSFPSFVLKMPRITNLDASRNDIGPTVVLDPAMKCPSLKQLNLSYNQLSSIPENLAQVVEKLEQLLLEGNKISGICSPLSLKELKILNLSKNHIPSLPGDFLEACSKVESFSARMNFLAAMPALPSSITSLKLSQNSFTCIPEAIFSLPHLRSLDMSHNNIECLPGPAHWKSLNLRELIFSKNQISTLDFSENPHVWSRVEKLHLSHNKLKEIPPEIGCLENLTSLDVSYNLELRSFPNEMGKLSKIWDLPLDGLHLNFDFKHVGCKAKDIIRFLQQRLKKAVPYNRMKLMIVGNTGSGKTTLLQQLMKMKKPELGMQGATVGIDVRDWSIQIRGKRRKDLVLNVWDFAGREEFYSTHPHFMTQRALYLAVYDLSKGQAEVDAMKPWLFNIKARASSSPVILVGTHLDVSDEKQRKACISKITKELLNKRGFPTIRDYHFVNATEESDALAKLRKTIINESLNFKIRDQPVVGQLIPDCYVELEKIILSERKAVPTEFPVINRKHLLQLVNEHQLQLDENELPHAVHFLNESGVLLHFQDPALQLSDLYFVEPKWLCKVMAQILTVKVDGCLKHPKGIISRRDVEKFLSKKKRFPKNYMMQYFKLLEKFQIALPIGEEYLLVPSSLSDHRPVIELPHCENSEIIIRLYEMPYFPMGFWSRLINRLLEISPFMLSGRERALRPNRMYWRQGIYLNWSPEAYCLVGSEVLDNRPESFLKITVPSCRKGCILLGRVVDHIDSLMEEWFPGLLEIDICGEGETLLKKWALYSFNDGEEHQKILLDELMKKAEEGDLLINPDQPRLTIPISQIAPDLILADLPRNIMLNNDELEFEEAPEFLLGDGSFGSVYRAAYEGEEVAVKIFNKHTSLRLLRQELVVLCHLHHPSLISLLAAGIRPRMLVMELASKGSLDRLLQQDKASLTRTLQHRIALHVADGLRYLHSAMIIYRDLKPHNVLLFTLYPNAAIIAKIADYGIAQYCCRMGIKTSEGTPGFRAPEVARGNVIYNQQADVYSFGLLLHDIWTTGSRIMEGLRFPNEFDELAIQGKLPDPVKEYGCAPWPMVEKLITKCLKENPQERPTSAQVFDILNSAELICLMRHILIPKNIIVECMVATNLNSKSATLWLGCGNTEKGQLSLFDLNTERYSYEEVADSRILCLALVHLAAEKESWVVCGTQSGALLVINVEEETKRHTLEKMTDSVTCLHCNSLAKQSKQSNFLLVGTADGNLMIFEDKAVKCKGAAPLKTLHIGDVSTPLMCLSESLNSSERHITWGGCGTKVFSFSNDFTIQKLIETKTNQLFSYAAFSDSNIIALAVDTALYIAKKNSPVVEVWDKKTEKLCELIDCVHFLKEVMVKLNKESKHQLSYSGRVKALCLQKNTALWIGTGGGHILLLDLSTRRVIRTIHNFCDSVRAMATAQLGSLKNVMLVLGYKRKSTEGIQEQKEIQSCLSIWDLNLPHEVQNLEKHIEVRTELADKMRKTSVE
The target in data set [14] is T1, Phosphatidylinositol 4-kinase beta. Nature of the data set: Binding affinity to human PIK4CB (M1/M828) WT expressed in mammalian system assessed as dissociation constant measured at 1 uM by DiscoveRx KINOMEscan assay.
The nature of data set [15]: Drug uptake in P-gp la-deficient C57BL/6 mouse brain at 5 mg/kg, sc and measured after 0.5 hrs. Format: ADME, organism-based. Particulars: read-out: Drug uptake.
The subject of a further data set is P-glycoprotein (human). Nature of the data set: Apparent permeability in MDCK-MDR1 cells expressing human P-glycoprotein. The settings on record: dog. It counts as ADME, cell-based, Canis lupus familiaris.
Data set [16] is described as follows: Drug uptake in C57BL/6 WT mouse plasma at 5 mg/kg, sc and measured after 0.5 hrs. It counts as ADME, organism-based. Particulars: C57BL/6, mouse.
A short description of data set [17]: Drug uptake in C57BL/6 WT mouse brain at 5 mg/kg, sc and measured after 0.5 hrs. Format: ADME, organism-based. Particulars: C57BL/6, mouse, read-out: Drug uptake.
A short description of data set [18]: Drug uptake in C57BL/6 WT mouse plasma at 5 mg/kg, sc and measured after 1 hrs. Format: ADME, organism-based. Particulars: C57BL/6, mouse.
Data set [19] can be described thus: Drug uptake in Mdr1a deficient C57BL/6 mouse brain at 5 mg/kg, sc and measured after 1 hrs. It counts as ADME, organism-based. Particulars: read-out: Drug uptake.
Data set [20] is described as follows: Drug uptake in C57BL/6 WT mouse brain at 5 mg/kg, sc and measured after 1 hrs. It counts as ADME, organism-based. The settings on record: C57BL/6, mouse, read-out: Drug uptake.
Data set [21] in a line: Ratio of drug level in Mdr1A deficient C57BL/6 mouse brain to plasma at 5 mg/kg, sc and measured after 1 hrs. It counts as ADME, organism-based.
Data set [22] can be described thus: Drug uptake in Mdr1a deficient C57BL/6 mouse plasma at 5 mg/kg, sc and measured after 1 hrs. It counts as ADME, organism-based.
Data set [23] is described as follows: Ratio of unbound drug level in Md1a deficient C57BL/6 mouse brain to plasma at 5 mg/kg, sc and measured after 1 hrs. Format: ADME, organism-based.
Data set [24] can be described thus: Ratio of drug level in C57BL/6 WT mouse brain to plasma at 5 mg/kg, sc and measured after 1 hrs. Format: ADME, organism-based. Particulars: C57BL/6, mouse.
A short description of data set [25]: Ratio of unbound drug level in C57BL/6 WT mouse brain to plasma measured at 5 mg/kg, sc and measured after 1 hrs. It counts as ADME, organism-based. The settings on record: C57BL/6, mouse.

Usually half-life stands for the time needed for the level to fall by half in the phase considered. A high value points to slow loss. In general, IC50 refers to the concentration that inhibits the measured activity by half. A high value points to a need for much substance. One may read the inhibition as how much of the control response was suppressed. The low end stands for a weak effect, the high end for a strong effect. The term clearance denotes the volume of plasma or blood freed of the substance per unit of time. Read a high clearance as efficient removal. What is called bioavailability is dose-corrected exposure relative to a reference, in per cent. Read a low bioavailability as little systemic uptake. One may read the Kp as tissue or fluid exposure divided by exposure in the circulation. As a reminder, the Kd is a measure of binding affinity in units of concentration. Broadly, the efflux ratio is a quotient of directional permeabilities that is used to spot active efflux. A word on the Papp: it is the rate of passage across a membrane or cell layer, normalised by area and donor concentration. Take `Cc1c(Nc2nc(N)c3c(C#N)c(N4CCC[C@H]4C)n(C)c3n2)cnn1[C@@H]1CCOC1`: the half-life in data set [1] was 6 min. In addition, the concentration at 0.5 h in data set [2] was found to be 1960 ng/mL; in data set [5], 2140 ng/mL; in [15], 256 ng/g. In addition, the IC50 in data set [3] is 1100 nM; in data set [13], 11 nM. The compound also showed an inhibition in data set [4] of 45%. The clearance in data set [6] is 36.7 mL/min/kg. This compound showed a bioavailability in data set [7] of 5%. The Kp at 0.5 h in [8] is 0.31. Moreover, the Kp uu at 0.5 h in data set [9] was determined as 0.11. Moreover, the Kd in data set [10] is 470 nM; in data set [14] it was 850 nM. Besides, in the data set listed under Homo sapiens, the Activity was under 37%. Moreover, the efflux ratio in the data set on BCRP (human) amounted to 34. Besides, the Ratio in data set [11] was found to be 0.37. Moreover, in data set [12], the CLint scaled is 28.3 mL/min/kg. The Papp in the data set with P-glycoprotein (human) stood at 4.6 ×10⁻⁶ cm/s.

In data set [1], `Cc1c(Nc2nc(N)c3c(C#N)c(N4CCC[C@H]4C)n(C)c3n2)cnn1[C@H]1CCOC1` showed a half-life of 12 min. Besides, the values for the concentration at 0.5 h in data set [16], in [2] and in data set [17] were 1610 ng/mL, 1600 ng/mL and 73 ng/g, respectively. In addition, the IC50 in [3] is 840 nM; in [13], 22 nM. The inhibition in data set [4] was 29%. Moreover, the clearance in [6] is 53.3 mL/min/kg. The compound also came in with a bioavailability in [7] of under 1%. Also, the concentration at 1 h in data set [18] was 440 ng/mL; in data set [19], 675 ng/g; in data set [20] it was 17 ng/g; in data set [22] it was 100 ng/mL. The Kd was 67 nM in data set [10] and 730 nM in [14]. In addition, in the data set filed under Homo sapiens, the Activity was under 37%. The partition ratio (Kp) at 1 h amounted to 0.15 in data set [21] and 0.04 in data set [24]. Moreover, the efflux ratio in the data set with BCRP (human) worked out at 22. For the same compound, the Ratio in [11] was 0.24. The Kp uu at 1 h in data set [23] turned out to be 0.056; in data set [25] it was 0.014. In addition, in data set [12], the CLint scaled was 23.3 mL/min/kg. The Papp in the data set on P-glycoprotein (human) was determined as 4.3 ×10⁻⁶ cm/s.
